The results in this text go back to patent US20070293572A1, “Anti-Fatigue Composition” (priority 2004, published 2007).

In the assay the test system is Sprague-Dawley male rats. As to the kind of experiment: Treadmill Test using Young Rat (1). The assay is classed as in vivo. To be noted: oral 100 mg/kg; for Extension of maximum running time (result in words): before vs three hours after administration; for Extension of maximum running time: maximum running time three hours after vs before administration, 7 to 10 week old rats, n=20. The protocol: Treadmill Test using Young Rat (1)
Using Sprague-Dawley malerats (7 to 10 week old, n=20) anti-fatigue effects brought about by reduced coenzyme Q10 alone (about 2% of oxidized coenzyme Q10 included), carnitine alone, and combination use of reduced coenzyme Q10 and carnitine were evaluated with a treadmill. In the test, rats were run at a speed of 10 m/min using a treadmill apparatus (model NK-73-4 made by Natume Seisakusho Co., Ltd.), and the speed was increased stepwise, by 5 m/min every 3 minutes, and the time when the rats became unable to run (maximum running time) was measured.
As a substance to be tested, a 0.5% sodium carboxymethylcellulose (CMC-Na) aqueous solution of reduced coenzyme Q10 (about 2% of oxidized coenzyme Q10 included) or carnitine (reduced coenzyme Q10 or carnitine/CMC-Na=10 mg/ml) was prepared and the solution was orally administered to rats at a dose of 100 mg/kg. Rats were divided into four groups of a solvent administered group, reduced coenzyme Q10 only administered group, a carnitine only administered group, and a reduced coenzyme Q10 and carnitine combined group. The maximum running time was measured before and three hours after the administration and the time extended from the maximum running time was calculated. A 0.5% CMC-Na aqueous solution was administered to the control group.

As to `COc1c(O)c(C)c(C/C=C(\C)CC/C=C(\C)CC/C=C(\C)CC/C=C(\C)CC/C=C(\C)CC/C=C(\C)CC/C=C(\C)CC/C=C(\C)CC/C=C(\C)CCC=C(C)C)c(O)c1OC` [Reduced coenzyme Q10, reduced coenzyme Q10], the “Extension of maximum running time (result in words)” value is listed as “no extension of the maximum running time” and the “Extension of maximum running time” value is −22 ± 71 S.
As to `C[N+](C)(C)CC(O)CC(=O)[O-]` (stereo not shown) [Carnitine, 4-trimethylamino-3-hydroxybutyric acid], the “Extension of maximum running time (result in words)” value is listed as “no extension of the maximum running time” and the “Extension of maximum running time” value is recorded as −0 ± 151 S.
